Source: ChEMBL document CHEMBL4229567, “Aiming to Miss a Moving Target: Bromo and Extra Terminal Domain (BET) Selectivity in Constrained ATAD2 Inhibitors” (J Med Chem, 2018)

Columns and labels:
[1] = target: Bromodomain-containing protein 4 (Homo sapiens, UniProt O60885); assay: Inhibition of 6His-tagged Thr-BRD4 (BD1) (1 to 477 residues) (unknown origin) expressed in Escherichia coli BL21(DE3) after 30 mins in presence of biotinylated triacetylated histone H4 peptide by alexa fluor 647 dyse based TR-FRET assay
[2] = target: T1, ATPase family AAA domain-containing protein 2 (Homo sapiens, UniProt Q6PL18); assay: Inhibition of N-terminal FLAG-6His-tagged TEV-fused ATAD2 (981 to 1121 residues) (unknown origin) expressed in Escherichia coli BL21(DE3) after 30 mins in presence of biotinylated triacetylated histone H4 peptide by alexa fluor 488-dye based TR-FRET assay
T1 sequence (Q6PL18 whole entry): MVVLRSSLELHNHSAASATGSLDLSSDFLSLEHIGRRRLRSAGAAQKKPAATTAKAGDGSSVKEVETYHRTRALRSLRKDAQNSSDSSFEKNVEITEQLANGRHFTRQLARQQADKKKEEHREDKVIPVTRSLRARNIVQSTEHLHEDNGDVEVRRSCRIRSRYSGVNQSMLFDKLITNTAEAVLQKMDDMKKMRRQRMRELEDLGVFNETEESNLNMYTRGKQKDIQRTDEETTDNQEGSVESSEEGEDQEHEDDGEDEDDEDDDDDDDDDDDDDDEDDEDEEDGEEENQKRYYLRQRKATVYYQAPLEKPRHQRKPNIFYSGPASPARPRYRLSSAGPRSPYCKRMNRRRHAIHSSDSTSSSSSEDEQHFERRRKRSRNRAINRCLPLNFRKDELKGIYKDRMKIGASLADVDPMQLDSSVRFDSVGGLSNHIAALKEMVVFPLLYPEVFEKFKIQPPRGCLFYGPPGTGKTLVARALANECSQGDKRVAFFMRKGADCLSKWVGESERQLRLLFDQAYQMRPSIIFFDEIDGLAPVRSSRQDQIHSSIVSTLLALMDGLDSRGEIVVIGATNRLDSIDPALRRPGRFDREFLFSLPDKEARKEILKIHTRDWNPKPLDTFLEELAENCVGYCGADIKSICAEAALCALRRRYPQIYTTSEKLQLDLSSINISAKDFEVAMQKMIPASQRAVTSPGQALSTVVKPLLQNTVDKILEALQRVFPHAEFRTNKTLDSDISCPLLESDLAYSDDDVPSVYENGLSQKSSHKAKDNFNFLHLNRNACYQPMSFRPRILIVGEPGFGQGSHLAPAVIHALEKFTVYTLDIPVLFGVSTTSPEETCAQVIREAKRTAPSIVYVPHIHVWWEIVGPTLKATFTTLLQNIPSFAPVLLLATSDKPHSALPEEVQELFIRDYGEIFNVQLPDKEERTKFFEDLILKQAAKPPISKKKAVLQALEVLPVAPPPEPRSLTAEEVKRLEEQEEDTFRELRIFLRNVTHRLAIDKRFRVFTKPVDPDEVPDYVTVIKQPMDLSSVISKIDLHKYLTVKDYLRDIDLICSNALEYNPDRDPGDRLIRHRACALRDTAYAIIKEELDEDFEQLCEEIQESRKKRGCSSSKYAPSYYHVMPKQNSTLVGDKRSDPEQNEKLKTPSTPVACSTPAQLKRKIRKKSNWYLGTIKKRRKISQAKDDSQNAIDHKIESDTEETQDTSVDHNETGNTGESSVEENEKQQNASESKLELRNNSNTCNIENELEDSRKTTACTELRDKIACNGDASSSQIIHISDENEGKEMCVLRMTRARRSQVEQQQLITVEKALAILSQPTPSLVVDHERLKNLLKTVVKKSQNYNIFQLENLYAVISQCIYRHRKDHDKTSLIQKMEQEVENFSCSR

Row | SMILES | IC50 [1] [µM] | IC50 [2] [µM]
1 | Cc1cc2ccnc(N[C@@H]3CCNC[C@H]3OCC3CCCCC3)c2[nH]c1=O | 3.98 | –
2 | CO[C@@H]1CNCC[C@H]1Nc1nccc2cc(C)c(=O)[nH]c12 | 5.01 | –
3 | CO[C@H]1CNC[C@@H](OC)[C@@H]1Nc1nccc2cc(C)c(=O)[nH]c12 | 25.1 | 25.1
4 | Cc1cncc(-c2ccc(N[C@@H]3CCNC[C@H]3OCC3CCC(F)(F)CC3)c3[nH]c(=O)c(C)cc23)c1 | 6.31 | 0.0398
5 | CO[C@H]1CNC[C@@H](OCC2CCS(=O)(=O)CC2)[C@@H]1Nc1ncc(-c2cncc(C)c2)c2cc(C)c(=O)[nH]c12 | 158 | 0.126

Now from value to molecule:

Row | IC50 [1] [µM] | IC50 [2] [µM] | SMILES
6 | 10 | – | Cc1cncc(-c2cnc(N[C@@H]3CCNC[C@H]3OCC3CCOCC3)c3[nH]c(=O)c(C)cc23)c1
7 | 7.94 | 0.251 | Cc1cncc(-c2cnc(N[C@@H]3C[C@H]4CC[C@H](N4)[C@H]3CCC3CCOCC3)c3[nH]c(=O)c(C)cc23)c1
8 | 5.01 | 0.1 | Cc1cncc(-c2cnc(N[C@@H]3C[C@H]4CC[C@H](N4)[C@H]3CCC3CCC(F)(F)CC3)c3[nH]c(=O)c(C)cc23)c1
9 | > 50.1 | 0.251 | Cc1cncc(-c2cnc(N[C@@H]3C[C@H]4CC[C@H](N4)[C@H]3CCC3CCS(=O)(=O)CC3)c3[nH]c(=O)c(C)cc23)c1
10 | 31.6 | 0.2 | CO[C@H]1CNC[C@@H](OCC2CCOCC2)[C@@H]1Nc1ncc(-c2cncc(C)c2)c2cc(C)c(=O)[nH]c12
11 | 5.01 | 0.251 | Cc1cncc(-c2ccc(N[C@@H]3C[C@H]4CC[C@H](N4)[C@H]3CCC3CCS(=O)(=O)CC3)c3[nH]c(=O)c(C)cc23)c1
